Assay results as given in patent US20110020843A1, “LABEL-FREE METHODS RELATED TO PHOSPHODIESTERASES” (priority 2009, published 2011).
Read-outs that look alike come from different tables or passages of the source.

Tests used:
[1] = tested on: quiescent A431 cells (endogenous PDE4 isoforms); assay: Label-free Epic RWG biosensor DMR assay of PDE inhibitors in synchronized quiescent A431 cells; format: cell-based, human; details: for DMR signal induced by PDE inhibitor: each at 12.5 micromolar, 22k cells per well, synchronized in HBSS under low CO2 for 2 hrs, vs vehicle; for DMR signal upon stimulation: synchronized in HBSS buffer for a shorter time (<90 min), data not shown
Procedure: Cells were typically grown using ˜1 to 2×10^4 cells per well at passage 3 to 15 suspended in 50 μl of the corresponding culture medium in the biosensor microplate, and were cultured at 37° C. under air/5% CO2 for ˜1 day. Except for A431 which was subject to ˜20 hr starvation through continuously culture in the serum-free DMEM, the other cell types were directly assayed without starvation.
Epic® wavelength interrogation system (Corning Inc., Corning, N.Y.) was used for whole cell sensing. This system consists of a temperature-control unit, an optical detection unit, and an on-board liquid handling unit with robotics. The detection unit is centered on integrated fiber optics, and enables kinetic measures of cellular responses with a time interval of ˜15 sec. The compound solutions were introduced by using the on-board liquid handling unit (i.e., pippetting).
The RWG biosensor is capable of detecting minute changes in local index of refraction near the sensor surface. Since the local index of refraction within a cell is a function of density and its distribution of biomass (e.g., proteins, molecular complexes), the biosensor exploits its evanescent wave to non-invasively detect ligand-induced dynamic mass redistribution in native cells. The evanescent wave extends into the cells and exponentially decays over distance, leading to a characteristic sensing volume of ˜150 nm, implying that any optical response mediated through the receptor activation only represents an average over the portion of the cell that the evanescent wave is sampling. The aggregation of many cellular events downstream the receptor activation determines the kinetics and amplitudes of a ligand-induced DMR.
All studies were carried out at a controlled temperature (28° C.). At least two independent sets of experiments, each with at least three replicates, were performed.
We further examined the DMR signal, if any, of the quiescent A431 cells upon treatment with PDE inhibitors. […] The quiescent A431 cells obtained under the same culture condition were used. Here the initial seeding numbers of cells were relatively low (˜20K cells per well in a 384 well Epic biosensor microplate tissue culture treated). […] After washing with the serum free medium, the cells were continuously cultured in the serum free medium for another 24 hrs to reach a quiescent state. Here the quiescent state was largely achieved through serum withdrawl. […] The cell membrane bound carbonic anahydrase is a known sensor for CO2 level.
In FIG. 4 the quiescent cells were achieved primarily through serum withdrawl. We were interested in the quiescent cells achieved through both contact inhibition and serum withdrawl. To do so, much higher initial seeding numbers of cells (>=25k cells per well for the 384 well Epic biosensor microplate) were used. […] Here both quiescent cells were subject to the same synchronization condition (2 hr incubation in the HBSS assay solution in a low CO2 environment).
Here the quiescent A431 cells were used using 22k cells per well in 384 well Epic biosensor microplates, followed by one day (˜24 hrs) culture in serum medium and 1 day (˜24 hrs) serum free medium, and sequential synchronization in the HBSS buffer solution under a relatively low CO2 environment for 2 hrs. […] For comparison, the DMR signal of cells stimulated with the buffer only (“Vehicle”) were included.

[2] = tested on: intracellular cAMP level of A431 cells; assay: Chemiluminescence quantification of cyclic AMP in whole cell lysate; format: cell-based, human
Procedure: A431 cells were seeded in 96 well TCT microplate at 80000 cells/well, cultured for 20 hrs and starved for an extra 20 hrs. Cells were washed two time with HBSS and incubated with 100 μl of HBSS, Leibovitz's L-15 medium (Gibco) or 1 μM of Acetozamine (Sigma) in HBSS for 2 hrs in the Epic instrument. […] The medium or buffer was removed and cells were lysed in 100 μm al of lysis buffer (from cAMP HTS immunoassay kit, Millipore) containing 1 mM IBMX. 50 μl of cell extracts as well as cAMP standard were then analyzed using the same procedure described by the vendor.
A431 Cells were cultured in a serum rich medium on Corning tissue culture treated 96 well microplate until it reached a high confluency (˜95%). After washing, the cells were continuously cultured in a serum free medium for overnight. At this point, the cells were at ˜100% confluency. After washing with corresponding solution, the cells are incubated at the same low CO2 environment (˜2% CO2) for 2 hr. The cells were then lysed with a cell lysis buffer containing 100 micromolar IBMX to block the PDE activity, followed by cAMP measurements, using the protocol as recommended by the supplier.

[3] = target: endogenous Gs-coupled β2-adrenergic receptor (Homo sapiens, UniProt P07550); details: A431 cells; Epic DMR vs whole cell cAMP kit (FIG. 3)
Procedure: For biosensor cellular assays, compound solutions were made by diluting the stored concentrated solutions with the HBSS (1× Hanks balanced salt solution, plus 20 mM Hepes, pH 7.1), and transferred into a 384 well polypropylene compound storage plate to prepare a compound source plate. Two compound source plates were made separately when a two-step assay was performed. In parallel, the cells were washed twice with the HBSS and maintained in 30 μl of the HBSS to prepare a cell assay plate. Both the cell assay plate and the compound source plate(s) were then incubated in the hotel of the reader system. After incubation the baseline wavelengths of all biosensors in the cell assay microplate were recorded and normalized to zero. Afterwards, a 2 to 10 min continuous recording was carried out to establish a baseline, and to ensure that the cells reached a steady state. Cellular responses were then triggered by transferring 10 μl of the compound solutions into the cell assay plate using the on-board liquid handler.

Sequence of endogenous Gs-coupled β2-adrenergic receptor (P07550 whole entry): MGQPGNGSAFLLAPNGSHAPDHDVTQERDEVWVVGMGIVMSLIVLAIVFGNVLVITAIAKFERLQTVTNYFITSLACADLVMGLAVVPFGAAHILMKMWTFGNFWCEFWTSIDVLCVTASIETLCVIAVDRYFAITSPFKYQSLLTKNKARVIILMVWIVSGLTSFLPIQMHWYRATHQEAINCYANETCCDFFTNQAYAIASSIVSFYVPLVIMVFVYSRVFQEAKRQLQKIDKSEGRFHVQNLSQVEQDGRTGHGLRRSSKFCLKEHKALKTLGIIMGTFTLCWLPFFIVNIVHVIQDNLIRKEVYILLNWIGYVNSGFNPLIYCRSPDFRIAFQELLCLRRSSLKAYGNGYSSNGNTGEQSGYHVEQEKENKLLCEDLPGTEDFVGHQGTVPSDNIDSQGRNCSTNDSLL

Cc1ccc([N+](=O)[O-])cc1S(=O)(=O)N(C)C [BRL-50481]
DMR signal induced by PDE inhibitor [1]: did not result in any detectable DMR signals

CC(C)Cn1c(=O)n(C)c(=O)c2[nH]cnc21 [IBMX]
EC50 ([1]; quiescent A431 (~20K cells per well, serum withdrawl), the three synchronized conditions wherein IBMX led to a detectable DMR signal, read-out: potency of IBMX-induced DMR signal (EC50)): ~10 µM
IBMX-induced DMR signal ([1]; quiescent A431 synchronized in CO2 independent medium L-15, highest doses examined (FIG. 4c)): little DMR signals
IBMX-induced DMR signal ([1]; synchronized in 1×HBSS 20 mM Hepes pH 7.1 with or without acetamolamide, low CO2, 2 hr (FIG. 4A, 4B)): dose-dependent and robust DMR signal
IBMX-induced DMR signal ([1]; synchronized in CO2 independent L-15 medium containing acetamolamide at 1 micromolar (FIG. 4D)): robust DMR signal
DMR signal upon stimulation [1]: inconsistent DMR signal
impact on intracellular cAMP levels (whole cell lysate) ([2]; 10 nanomolar to 100 micromolar, all synchronization conditions, data not shown): little impact

CCCn1c(=O)c(C)cn2nc(N)nc12 [ICI63197]
DMR signal induced by PDE inhibitor [1]: Gs-like DMR signal

COCc1nc2c([nH]1)c(=O)n(C)c(=O)n2CC(C)C [MMPX]
DMR signal induced by PDE inhibitor [1]: did not result in any detectable DMR signals

Clc1cccc(Nc2nnc(-c3ccccc3)c3ccccc23)c1 [MY-5445]
DMR signal induced by PDE inhibitor [1]: did not result in any detectable DMR signals

COc1ccc([C@@H]2CNC(=O)C2)cc1OC1CCCC1 [R-rolipram]
EC50 ([1]; Homo sapiens, A-431, quiescent cells achieved through both contact inhibition and serum withdrawl (>=25k cells per well), 2 hr incubation in HBSS, low CO2, read-out: EC50 of DMR response): 0.25 µM
DMR signal induced by PDE inhibitor [1]: Gs-like DMR signal
DMR signal upon stimulation [1]: inconsistent DMR signal

CCCCOc1cc(CC2CNC(=O)N2)ccc1OC (centres unmarked) [Ro-20-1724]
DMR signal induced by PDE inhibitor [1]: Gs-like DMR signal

CCc1ccc2c(-c3cccc(Cl)c3)nc(=O)n(CC)c2n1 [YM-976]
DMR signal induced by PDE inhibitor [1]: Gs-like DMR signal

CC(=O)Nc1nnc(S(N)(=O)=O)s1 [acetazolamide]
basal cAMP level ([2]; quiescent A431 synchronized 2 hr, low CO2, in L-15 medium containing 1 micromolar acetazolamide): 0.74±0.1 pmole/160K cells

O=C1CN2Cc3c(ccc(Cl)c3Cl)N=C2N1 [anagrelide]
DMR signal induced by PDE inhibitor [1]: did not result in any detectable DMR signals

CNC[C@H](O)c1ccc(O)c(O)c1 [epinephrine]
potency to activate DMR signal relative to potency to cause whole cell cAMP accumulation [3]: much higher potency

Cc1[nH]c(=O)c(C#N)cc1-c1ccncc1 [milrinone]
DMR signal induced by PDE inhibitor [1]: did not result in any detectable DMR signals

CCCOc1ccccc1-c1nc2nn[nH]c2c(=O)[nH]1 [zaprinast]
DMR signal induced by PDE inhibitor [1]: did not result in any detectable DMR signals
